Laboratory results taken from US12644094B2, “Serpin production” (SOCIETE DES PRODUITS NESTLE S.A., priority 2019, dated 2026).
Ends that are not written are not given here.

Key:
[1] = test system: B. longum strain CNCM I-2618 (NCC 2705); assay: Culture density (Optical Density at 600 nm) of B. longum NCC 2705 grown on carbohydrates; type: cell-based, Bifidobacterium longum subsp longum; details: grown on different carbohydrates for 24 h and 48 h (FIG. 2)
Method: B. longum strain CNCM I-2618 (NCC 2705) was grown in Biolector (growth conditions-anaerobic, 37° C.) in MRS+5 mM L-cysteine (MRSc) base without sugar, to which different carbohydrates were added. 48-well microtiter plate with pH sensor and dissolved oxygen (DO) sensor were used to culture the strains in Biolector […]-labs Aachen, Germany). It was continuously shaken to prevent bacteria aggregation for 24 h and 48 h. Cultures were harvested by centrifugation and supernatant was removed. Pellet was resuspended in PBS supplemented with halt protease inhibitor (Sigma) and lysed using glassbeads. Lysate containing both soluble and insoluble material was then collected. Total protein content was measured using Pierce BCA kit (Thermofisher) and serpin protein concentration was determined using ELISA.

[2] = test system: B. longum strain CNCM I-2618 (NCC 2705); assay: Serpin protein levels (ELISA) in B. longum NCC 2705 grown on different carbohydrates; type: cell-based, Bifidobacterium longum subsp longum
Method: B. longum strain CNCM I-2618 (NCC 2705) was grown in Biolector (growth conditions—anaerobic, 37° C.) in MRS+5 mM L-cysteine (MRSc) base without sugar, to which different carbohydrates were added.
48-well microtiter plate with pH sensor and dissolved oxygen (DO) sensor were used to culture the strains in Biolector (m2p-labs Aachen, Germany). It was continuously shaken to prevent bacteria aggregation for 24 h and 48 h. Cultures were harvested by centrifugation and supernatant was removed. Pellet was resuspended in PBS supplemented with halt protease inhibitor (Sigma) and lysed using glassbeads. Lysate containing both soluble and insoluble material was then collected. Total protein content was measured using Pierce BCA kit (Thermofisher) and serpin protein concentration was determined using ELISA.
(§1) B. longum NCC 2705 was cultured in Biolector (as described in Example 1) in a base of MRSc without sugar, with the addition of different di-saccharides and tri-saccharides, at concentrations of 0.5 wt % and 1 wt %. Cultures were collected after 48 h of growth and analyzed for total & serpin protein levels (as described in Example 1).
as §1, with “short chain fructo-oligosaccharides (FOS),” for “di-saccharides and tri-saccharides,”, “of” for “of 0.5 wt % and”, “16” for “48”
The FOS used were (i) NutraFlora P95 FOs from Ingredion Inc, USA., a short-chain FOS with Glucose-Fructose (GF) chains with DP from 3 to 5 and comprising GF2, GF3 and GF4 molecules; (ii) Orafti P95 from Beneo, a short-chain FOS with DP from 2 to 8.

transglutaminase 2 (TG2) = molecular target: T1, transglutaminase 2 (TG2) (Homo sapiens, UniProt P21980); details: in-vitro, addition of elafin; cited from earlier work
T1 sequence (P21980 1-687): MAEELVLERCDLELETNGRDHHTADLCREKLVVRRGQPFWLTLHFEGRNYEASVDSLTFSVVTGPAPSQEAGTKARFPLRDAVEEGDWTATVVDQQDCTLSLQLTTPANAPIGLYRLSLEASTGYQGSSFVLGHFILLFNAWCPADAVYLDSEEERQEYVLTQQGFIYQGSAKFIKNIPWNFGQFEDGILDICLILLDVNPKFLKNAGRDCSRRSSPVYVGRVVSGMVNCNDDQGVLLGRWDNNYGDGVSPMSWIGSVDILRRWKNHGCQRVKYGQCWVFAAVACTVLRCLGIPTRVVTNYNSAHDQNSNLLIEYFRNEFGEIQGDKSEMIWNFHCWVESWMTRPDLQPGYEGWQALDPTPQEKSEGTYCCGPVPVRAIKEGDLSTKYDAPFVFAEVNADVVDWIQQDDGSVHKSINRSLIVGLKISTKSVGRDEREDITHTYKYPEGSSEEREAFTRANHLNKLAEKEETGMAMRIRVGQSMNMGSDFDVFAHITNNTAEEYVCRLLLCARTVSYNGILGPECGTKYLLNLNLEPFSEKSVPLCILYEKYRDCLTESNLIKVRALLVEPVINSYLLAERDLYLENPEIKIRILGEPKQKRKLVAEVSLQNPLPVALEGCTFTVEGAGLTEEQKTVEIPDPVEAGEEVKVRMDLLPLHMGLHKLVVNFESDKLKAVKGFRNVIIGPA

[3] = test system: various forms of elastases and proteinase; details: cited from earlier work

O=C(CO)[C@@H](O)[C@H](O)[C@H](O)CO [fructose, reference compound]
growth (culture density, Optical Density at 600 nm) [1]: retarded growth | serpin protein levels ([2]; grown for 48 h on different carbohydrates, compared to all other sugars tested (FIG. 1)): increase B. longum NCC 2705 serpin protein levels | serpin induction ([2]; grown on different carbohydrates for 24 h and 48 h (FIG. 2)): induce serpin in B. longum NCC 2705 to a higher magnitude than galactose

OC[C@H]1O[C@@](CO)(O[C@H]2O[C@H](CO)[C@@H](O)[C@H](O)[C@H]2O)[C@@H](O)[C@@H]1O [saccharose]
serpin production ([2]; 1 wt %, 48 h of growth, MRSc base without sugar (FIG. 3)): induce strongly serpin production

OC[C@H]1O[C@H](OC[C@H]2O[C@H](O[C@]3(CO)O[C@H](CO)[C@@H](O)[C@@H]3O)[C@H](O)[C@@H](O)[C@@H]2O)[C@H](O)[C@@H](O)[C@H]1O [raffinose]
serpin levels ([2]; 0.5 wt %, 48 h of growth, MRSc base without sugar (FIG. 3), effect not obtained at 1 wt %): significant increase in serpin levels

elafin: human serine protease inhibitor (AQEPVKGPVSTKPGSCPIILIRCAMLNPPNRCLKDTDCPGIKKCCEGSCGMACFVPQ; ends and bridges not checked; cysteine pairing not given here; UniProt P19957 61-117, looked up)
inhibition of transglutaminase 2 (TG2) (transglutaminase 2 (TG2)): moderately inhibits transglutaminase 2 (TG2) | inhibitory capacity against elastases and proteinase [3]: potent inhibitory capacity
